For 20 compounds, IC50 results are on record in patent US9403813B2, “Azetidine amide derivatives as orexin receptor antagonists” (ACTELION PHARMACEUTICALS LTD, priority 2013, dated 2016).

The target of one test is human orexin-1 receptor (Homo sapiens (Human), UniProt O43613). Nature of the test: Intracellular calcium measurements (FLIPR), antagonism of orexin-A response. It is filed as cell-based. The note with it: CHO cells expressing human orexin-1 receptor, 3 nM orexin-A, geometric mean if determined several times, read-out: IC50 OX1. As for the experimental part: (§1) Antagonistic activities on both orexin receptors have been measured for each example compound using the following procedure:
(§2) In Vitro Assay: Intracellular Calcium Measurements:
(§3) Chinese hamster ovary (CHO) cells expressing the human orexin-1 receptor and the human orexin-2 receptor, respectively, are grown in culture medium (Ham F-12 with L-Glutamine) containing 300 μg/mL G418, 100 U/mL penicillin, 100 μg/mL streptomycin and 10% heat inactivated fetal calf serum (FCS). The cells are seeded at 20,000 cells/well into 384-well black clear bottom sterile plates (Greiner). The seeded plates are incubated overnight at 37° C. in 5% CO2. Human orexin-A as an agonist is prepared as 1 mM stock solution in MeOH:water (1:1), diluted in HBSS containing 0.1% bovine serum albumin (BSA), NaHCO3: 0.375 g/L and 20 mM HEPES for use in the assay at a final concentration of 3 nM.
(§4) Antagonists are prepared as 10 mM stock solution in DMSO, then diluted in 384-well plates using DMSO followed by a transfer of the dilutions into in HBSS containing 0.1% bovine serum albumin (BSA), NaHCO3: 0.375 g/L and 20 mM HEPES. On the day of the assay, 50 μL of staining buffer (HBSS containing 1% FCS, 20 mM HEPES, NaHCO3: 0.375 g/L, 5 mM probenecid (Sigma) and 3 μM of the fluorescent calcium indicator fluo-4 AM (1 mM stock solution in DMSO, containing 10% pluronic) is added to each well. The 384-well cell-plates are incubated for 50 min at 37° C. in 5% CO2 followed by equilibration at rt for 30 min before measurement.
(§5) Within the Fluorescent Imaging Plate Reader (FLIPR Tetra, Molecular Devices), antagonists are added to the plate in a volume of 10 μL/well, incubated for 120 min and finally 10 μL/well of agonist is added. Fluorescence is measured for each well at 1 second intervals, and the height of each fluorescence peak is compared to the height of the fluorescence peak induced by 3 nM orexin-A with vehicle in place of antagonist. The IC50 value (the concentration of compound needed to inhibit 50% of the agonistic response) is determined and may be normalized using the obtained IC50 value of an on-plate reference compound. Optimized conditions were achieved by adjustment of pipetting speed and cell splitting regime. The calculated IC50 values may fluctuate depending on the daily cellular assay performance. Fluctuations of this kind are known to those skilled in the art. In the case where IC50 values have been determined several times for the same compound, the geometric mean has been given.
In general terms: Calcium assays in cells follow changes in intracellular calcium, usually with a dye or a luminescent sensor.

The next test deals with human orexin-2 receptor (Homo sapiens (Human), UniProt O43614). The description is as above. The note with it: CHO cells expressing human orexin-2 receptor, 3 nM orexin-A, geometric mean if determined several times, read-out: IC50 OX2. It is filed as cell-based. As to the method:
as §1, §2, §3, §4, §5

pIC50: −log10 of the molar value.

Sequence of human orexin-1 receptor (O43613 whole entry): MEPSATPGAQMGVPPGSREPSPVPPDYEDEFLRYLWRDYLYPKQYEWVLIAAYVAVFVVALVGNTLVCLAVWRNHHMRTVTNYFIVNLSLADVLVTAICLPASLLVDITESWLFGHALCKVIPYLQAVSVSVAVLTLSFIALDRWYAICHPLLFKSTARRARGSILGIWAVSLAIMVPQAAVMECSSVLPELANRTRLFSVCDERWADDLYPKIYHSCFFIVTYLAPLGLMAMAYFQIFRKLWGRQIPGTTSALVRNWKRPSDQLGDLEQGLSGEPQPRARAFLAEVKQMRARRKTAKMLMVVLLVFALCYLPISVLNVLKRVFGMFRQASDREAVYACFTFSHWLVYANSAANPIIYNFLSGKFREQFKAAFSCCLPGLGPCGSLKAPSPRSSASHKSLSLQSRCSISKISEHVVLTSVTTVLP
Sequence of human orexin-2 receptor (O43614 whole entry): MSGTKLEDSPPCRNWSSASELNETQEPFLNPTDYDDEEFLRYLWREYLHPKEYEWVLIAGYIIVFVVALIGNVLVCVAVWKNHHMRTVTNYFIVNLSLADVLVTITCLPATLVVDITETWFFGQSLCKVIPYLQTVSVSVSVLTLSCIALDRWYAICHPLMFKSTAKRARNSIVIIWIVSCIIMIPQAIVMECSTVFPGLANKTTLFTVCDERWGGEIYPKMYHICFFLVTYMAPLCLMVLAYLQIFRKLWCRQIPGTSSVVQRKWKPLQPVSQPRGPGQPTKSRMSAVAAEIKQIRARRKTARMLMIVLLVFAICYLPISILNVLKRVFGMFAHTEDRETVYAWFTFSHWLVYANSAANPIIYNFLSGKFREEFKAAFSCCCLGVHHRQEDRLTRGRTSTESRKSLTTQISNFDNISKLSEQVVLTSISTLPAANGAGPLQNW

By pIC50 is commonly meant the IC50 on a negative log10 scale, so that one unit is a factor of ten. On to `Cc1ccc(-n2nccn2)c(C(=O)N2CC[C@H]2c2nc(-c3ccccc3C)no2)c1` [Example 1, (5-Methyl-2-[1,2,3]triazol-2-yl-phenyl)-[(S)-2-(3-o-tolyl-[1,2,4]oxadiazol-5-yl)-azetidin-1-yl]-methanone], for which the pIC50 on human orexin-1 receptor was 5.91; on human orexin-2 receptor it was 7.72.
For `Cc1ccc(-n2nccn2)c(C(=O)N2CC[C@H]2c2nc(-c3cccc(F)c3C)no2)c1` [Example 2, {(S)-2-[3-(3-Fluoro-2-methyl-phenyl)-[1,2,4]oxadiazol-5-yl]-azetidin-1-yl}-(5-methyl-2-[1,2,3]triazol-2-yl-phenyl)-methanone], the pIC50 on human orexin-1 receptor was 6.15; at human orexin-2 receptor, 8.05.
Regarding `Cc1ccc(-c2noc([C@@H]3CCN3C(=O)c3cc(C)ccc3-n3nccn3)n2)cc1` [Example 3, (5-Methyl-2-[1,2,3]triazol-2-yl-phenyl)-[(S)-2-(3-p-tolyl-[1,2,4]oxadiazol-5-yl)-azetidin-1-yl]-methanone], the figures for the pIC50 on human orexin-1 receptor and on human orexin-2 receptor were 5.68 and 6.74, respectively.
Take `COc1ccccc1-c1noc([C@@H]2CCN2C(=O)c2cc(C)ccc2-n2nccn2)n1` [Example 4, {(S)-2-[3-(2-Methoxy-phenyl)-[1,2,4]oxadiazol-5-yl]-azetidin-1-yl}-(5-methyl-2-[1,2,3]triazol-2-yl-phenyl)-methanone]: the pIC50 at human orexin-1 receptor is 5.89; at human orexin-2 receptor, 7.42.
In the case of `COc1cccc(-c2noc([C@@H]3CCN3C(=O)c3cc(C)ccc3-n3nccn3)n2)c1` [Example 5, {(S)-2-[3-(3-Methoxy-phenyl)-[1,2,4]oxadiazol-5-yl]-azetidin-1-yl}-(5-methyl-2-[1,2,3]triazol-2-yl-phenyl)-methanone], the pIC50 is 5.92 at human orexin-1 receptor and 7.60 on human orexin-2 receptor.
Regarding `CCCOc1ccccc1-c1noc([C@@H]2CCN2C(=O)c2cc(C)ccc2-n2nccn2)n1` [Example 6, (5-Methyl-2-[1,2,3]triazol-2-yl-phenyl)-{(S)-2-[3-(2-propoxy-phenyl)-[1,2,4]oxadiazol-5-yl]-azetidin-1-yl}-methanone], the pIC50 was 6.33 on human orexin-1 receptor and 6.94 on human orexin-2 receptor.
With `Cc1ccc(-n2nccn2)c(C(=O)N2CC[C@H]2c2nc(-c3cccc(Cl)c3C)no2)c1` [Example 7, {(S)-2-[3-(3-Chloro-2-methyl-phenyl)-[1,2,4]oxadiazol-5-yl]-azetidin-1-yl}-(5-methyl-2-[1,2,3]triazol-2-yl-phenyl)-methanone], the values for the pIC50 at human orexin-1 receptor and on human orexin-2 receptor were 6.92 and 8.00, respectively.
Regarding `Cc1ccc(-n2nccn2)c(C(=O)N2CC[C@H]2c2nc(-c3c(C)cccc3F)no2)c1` [Example 8, {(S)-2-[3-(2-Fluoro-6-methyl-phenyl)-[1,2,4]oxadiazol-5-yl]-azetidin-1-yl}-(5-methyl-2-[1,2,3]triazol-2-yl-phenyl)-methanone], the pIC50 on human orexin-1 receptor is 5.46; at human orexin-2 receptor, 6.94.
For `CCOc1c(F)cccc1-c1noc([C@@H]2CCN2C(=O)c2cc(C)ccc2-n2nccn2)n1` [Example 9, {(S)-2-[3-(2-Ethoxy-3-fluoro-phenyl)-[1,2,4]oxadiazol-5-yl]-azetidin-1-yl}-(5-methyl-2-[1,2,3]triazol-2-yl-phenyl)-methanone], the values for the pIC50 on human orexin-1 receptor and at human orexin-2 receptor were 6.87 and 8.00, respectively.
`Cc1ccc(-n2nccn2)c(C(=O)N2CC[C@H]2c2nc(-c3cc(C)ccc3C)no2)c1` [Example 10, {(S)-2-[3-(2,5-Dimethyl-phenyl)-[1,2,4]oxadiazol-5-yl]-azetidin-1-yl}-(5-methyl-2-[1,2,3]triazol-2-yl-phenyl)-methanone]: the pIC50 was 6.47 at human orexin-1 receptor and 7.77 at human orexin-2 receptor.
For `Cc1ccc(-n2nccn2)c(C(=O)N2CC[C@H]2c2nc(-c3cc(F)cc(F)c3)no2)c1` [Example 11, {(S)-2-[3-(3,5-Difluoro-phenyl)-[1,2,4]oxadiazol-5-yl]-azetidin-1-yl}-(5-methyl-2-[1,2,3]triazol-2-yl-phenyl)-methanone], the pIC50 is 5.63 on human orexin-1 receptor and 6.55 at human orexin-2 receptor.
As for `Cc1ccc(-n2nccn2)c(C(=O)N2CC[C@H]2c2nc(-c3ccc(F)c(F)c3)no2)c1` [Example 12, {(S)-2-[3-(3,4-Difluoro-phenyl)-[1,2,4]oxadiazol-5-yl]-azetidin-1-yl}-(5-methyl-2-[1,2,3]triazol-2-yl-phenyl)-methanone], the pIC50 on human orexin-1 receptor was 5.60; on human orexin-2 receptor, 6.73.
Regarding `Cc1cccc(-c2noc([C@@H]3CCN3C(=O)c3cc(C)ccc3-n3nccn3)n2)c1` [Example 13, (5-Methyl-2-[1,2,3]triazol-2-yl-phenyl)-[(S)-2-(3-m-tolyl-[1,2,4]oxadiazol-5-yl)-azetidin-1-yl]-methanone], the pIC50 was 5.94 at human orexin-1 receptor and 7.40 on human orexin-2 receptor.
In the case of `Cc1ccc(-n2nccn2)c(C(=O)N2CC[C@H]2c2nc(-c3ccccc3Cl)no2)c1` [Example 14, {(S)-2-[3-(2-Chloro-phenyl)-[1,2,4]oxadiazol-5-yl]-azetidin-1-yl}-(5-methyl-2-[1,2,3]triazol-2-yl-phenyl)-methanone], the figures for the pIC50 at human orexin-1 receptor and at human orexin-2 receptor were 5.98 and 7.40, respectively.
On the same counts, the results for `Cc1ccc(-n2nccn2)c(C(=O)N2CC[C@H]2c2nc(-c3ccccc3OC(F)(F)F)no2)c1` [Example 15, (5-Methyl-2-[1,2,3]triazol-2-yl-phenyl)-{(S)-2-[3-(2-trifluoromethoxy-phenyl)-[1,2,4]oxadiazol-5-yl]-azetidin-1-yl}-methanone] are 6.94 and 7.82.
With `COc1c(F)cccc1-c1noc([C@@H]2CCN2C(=O)c2cc(C)ccc2-n2nccn2)n1` [Example 16, {(S)-2-[3-(3-Fluoro-2-methoxy-phenyl)-[1,2,4]oxadiazol-5-yl]-azetidin-1-yl}-(5-methyl-2-[1,2,3]triazol-2-yl-phenyl)-methanone], the pIC50 at human orexin-1 receptor is 6.19; at human orexin-2 receptor, 7.77.
On the same counts, the results for `COc1cc(C(=O)N2CC[C@H]2c2nc(-c3cccc(F)c3OC)no2)c(-n2nccn2)cc1C` [Example 17, {(S)-2-[3-(3-Fluoro-2-methoxy-phenyl)-[1,2,4]oxadiazol-5-yl]-azetidin-1-yl}-(5-methoxy-4-methyl-2-[1,2,3]triazol-2-yl-phenyl)-methanone] are 6.36 and 8.05.
Turning to `Cc1cc(C(=O)N2CC[C@H]2c2nc(-c3ccccc3OC(F)(F)F)no2)c(-n2nccn2)cc1C` [Example 18, (4,5-Dimethyl-2-[1,2,3]triazol-2-yl-phenyl)-{(S)-2-[3-(2-trifluoromethoxy-phenyl)-[1,2,4]oxadiazol-5-yl]-azetidin-1-yl}-methanone], the negative logarithm of the IC50 (pIC50) on human orexin-1 receptor is 6.80; at human orexin-2 receptor it was 8.30.
Regarding `COc1c(F)cccc1-c1noc([C@@H]2CCN2C(=O)c2ccc(C)cc2-n2nccn2)n1` [Example 19, {(S)-2-[3-(3-Fluoro-2-methoxy-phenyl)-[1,2,4]oxadiazol-5-yl]-azetidin-1-yl}-(4-methyl-2-[1,2,3]triazol-2-yl-phenyl)-methanone], the pIC50 is 7.36 at human orexin-1 receptor and 8.05 at human orexin-2 receptor.
Consider `COc1c(F)cccc1-c1noc([C@@H]2CCN2C(=O)c2ccc(C)cc2-n2nccn2)n1` [Example 20, {(S)-2-[3-(3-Fluoro-2-methoxy-phenyl)-[1,2,4]oxadiazol-5-yl]-azetidin-1-yl}-(4-methyl-2-[1,2,3]triazol-2-yl-phenyl)-methanone], for which the pIC50 is 6.20 at human orexin-1 receptor and 7.48 on human orexin-2 receptor.
